Experimental data as given in US9443060B2, “Method and system to provide personalized pharmaceutical compositions and dosages” (Volant Holdings GMBH, priority 2009, dated 2016).

Tests used:
[1] = tested on: hepatic gluconeogenesis (GNG); parameters: endogenous glucose output: unit not given here; conditions: Gastaldelli, euglycemic hyperinsulinemic clamp, plasma insulin 113±6 μU/ml, T2D, cited from earlier work
[2] = initiation of insulin in T2D patients; duration and intensity dependent; cited from earlier work
[3] = tested on: metabolic syndrome; assay: FS index / neural net model of cardiovascular risk in metabolic syndrome patient populations; type: in vivo, human
Description: The FS index of MS comprises the following parameters: Fasting Blood Glucose, Fasting Insulin, HBA1c, BMI, AST, Triglycerides, Glucose Supply-Demand (S/D) index, and in certain cases, Proinsulin. Each parameter was mathematically arranged to increase as MS worsened, and weighted approximately equally in the prediction of MS progression and risk for CV events. […] FS index values were calculated from serial laboratory and clinical data over timeframes ranging between 2 and 10 years.
Neural Net Models and Data Display Methods. […] Unless otherwise stated, standard deviations (z-score) vs. time are presented in the individual and mean population graphics.
For purposes of analysis, clinical and laboratory parameters were converted into modified z-scores as follows: • A mean normal value (described as “mean” in the following) was selected based on review of literature and various published laboratory compendia. The Standard Deviation (SD) of each parameter was set to one half of the normal range. The modified z-score is calculated as follows: z=(Patient value−“mean”)/SD • On the graphs, the z-score is reported as the number of SD.
The FS index considered the following: Fasting Blood Glucose, Fasting Insulin, HBA1c, BMI, AST, Triglycerides, Glucose Supply-Demand (S/D) index, and in some cases Proinsulin. […] Each of these parameters was mathematically arranged to increase as Metabolic Syndrome worsened, and weighted approximately equally in the prediction of Metabolic Syndrome progression and risk for CV events.
The FS index was then applied to well-studied patient populations using a neural net model.
[formula] Where FBG is Fasting Blood Glucose in mg/dl and normal value is 100 mg/dl TG is Triglycerides in mg/dl normal value is <150 HBA1c is hemoglobin A1c in %, normal value is <6% BMI is body mass index as kg/m2 where a normal value is 20 and obese begins above 25 AST is Aspartate Transferase also called SGOT in IU/liter and a normal value is 5-50 FB insulin is fasting Blood insulin concentration in nmol/liter, a normal value is 4.0

Compound | plasma C5:^2H2O ratio ([1]; basal 0.60±0.02) | endogenous glucose output ([1]; basal 15.2±0.4) | weight gain [2] | FS index response to treatment ([3]; normal 20-50, 61 T2D on metformin, 100 RYGB, 18 Brake, 33 exenatide, 12 sitagliptin patients) | other parameters of metabolic syndrome (BMI/weight, HBSD, lipids, NAFLD, blood pressure, insulin) ([3]; same patient populations as FS index)
insulin | 0.25±0.02 | 7.1±0.9 | 5-10% | – | –
N[C@@H](CC(=O)N1CCn2c(nnc2C(F)(F)F)C1)Cc1cc(F)c(F)cc1F [Sitagliptin] | – | – | – | beneficial response to the diabetes component of metabolic syndrome | weight slowly increases or stays the same, lipid abnormalities do not resolve and NAFLD abnormalities do not resolve
